PubChem BioAssay (NCI)
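These data come from cells grown in 96-well plates and exposed to compound for 48 hours at five concentrations. Here, GI50 denotes the concentration required for 50% inhibition of growth. TGI denotes the concentration required for complete inhibition of growth.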

Tests used:
Assay in all cases: growth of human tumour cells (NCI), 48 h
[1] = system: 786-0 renal
[2] = system: SW-620 colon
[3] = system: NCI-H522 lung
[4] = system: A549 NSCLC
[5] = system: HCT-116 colon
[6] = system: UO-31 renal
[7] = system: COLO 205 colon
[8] = system: SN12C renal
[9] = system: DU-145 prostate
[10] = system: HCT-15 colon

Row | SMILES | GI50 [1] | TGI [1] | GI50 [2] | TGI [2] | GI50 [3] | TGI [3] | GI50 [4] | TGI [4] | GI50 [5] | TGI [5] | GI50 [6] | TGI [6] | GI50 [7] | TGI [7] | GI50 [8] | TGI [8] | GI50 [9] | TGI [9] | GI50 [10] | TGI [10]
1 | COC(=O)[C@]12CC[C@@H](C)[C@H](C)[C@@H]1C1=CC[C@@H]3[C@@]4(C)C(C=O)=C[C@@](C)(COC(=O)/C=C/c5ccccc5)[C@@H]4[C@H](O)C[C@@]3(C)[C@]1(C)CC2 | 5010 nM | 42.7 µM | 3680 nM | 18.8 µM | 4470 nM | 17.4 µM | 3730 nM | 22 µM | 3060 nM | 13.7 µM | 3280 nM | 20.2 µM | 2300 nM | 5.33 µM | 3800 nM | 26.5 µM | 4960 nM | 25.9 µM | 2200 nM | 5.36 µM
2 | C#Cc1cccc(NC(=O)c2ccc(NC(=O)CCl)cc2)c1 | 14600 nM | 29.8 µM | 15700 nM | 34 µM | 13500 nM | 35 µM | > 82500 nM | > 82.5 µM | 11900 nM | 36.3 µM | 9480 nM | 20.3 µM | 23700 nM | > 82.5 µM | 18600 nM | > 82.5 µM | > 82500 nM | > 82.5 µM | 9950 nM | 25 µM
3 | COc1ccc(/C=C2\c3cc(OC)c(OC)c(OC)c3CC[C@@H]2O)cc1F | 492 nM | > 100 µM | 246 nM | > 100 µM | 156 nM | 0.639 µM | 693 nM | > 100 µM | 331 nM | > 100 µM | 534 nM | 89.9 µM | 1030 nM | 7.59 µM | 949 nM | > 100 µM | 322 nM | > 100 µM | 190 nM | > 100 µM
4 | COC1=CC(=O)c2nc(Cl)ccc2C1=O | 2020 nM | 3.76 µM | 1790 nM | 3.3 µM | 1700 nM | 3.57 µM | 12800 nM | 26.1 µM | 1750 nM | 3.24 µM | 1630 nM | 3.12 µM | 2310 nM | 4.98 µM | 1720 nM | 3.19 µM | 1650 nM | 3.01 µM | 2030 nM | 4.55 µM
5 | CCN(Cc1ccc(F)cc1)c1ccc(CO)c(OC)c1 | 21400 nM | 65.1 µM | 21100 nM | > 100 µM | 6610 nM | 20 µM | 40100 nM | > 100 µM | 10000 nM | 28.2 µM | 13700 nM | 35.6 µM | 13400 nM | 29.7 µM | 21900 nM | > 100 µM | 27600 nM | > 95.2 µM | 14600 nM | 41 µM
6 | C=C1C(=O)O[C@H]2[C@H]1CC/C(COC(=O)NCCCCCCCCNC(=O)OC/C1=C/CC[C@@]3(C)O[C@H]3[C@H]3OC(=O)C(=C)[C@@H]3CC1)=C\CC[C@@]1(C)O[C@@H]21 | 244 nM | 0.646 µM | 239 nM | 0.686 µM | 186 nM | 0.407 µM | 1700 nM | 3.51 µM | 198 nM | 0.407 µM | 880 nM | 2.17 µM | 300 nM | 0.756 µM | 264 nM | 0.849 µM | 1100 nM | 2.3 µM | 346 nM | 1.41 µM
7 | CCC[CH2][Pb]([Cl])([CH2]CCC)[CH2]CCC | 17.7 nM | 0.037 µM | 18.5 nM | 0.0345 µM | 32.1 nM | 0.104 µM | 26.4 nM | 0.0936 µM | 17.6 nM | 0.0345 µM | 31 nM | 0.0809 µM | 19.4 nM | 0.0358 µM | 15.2 nM | 0.0294 µM | 97.8 nM | 0.22 µM | 19.5 nM | 0.0487 µM
8 | COc1cc2c(cc1C)NC(=O)/C2=C\c1c[nH]c2ccccc12 | 17800 nM | 49.2 µM | 20300 nM | 53.3 µM | 12200 nM | 28.9 µM | 28400 nM | > 100 µM | 21100 nM | 90.1 µM | 10400 nM | 62.9 µM | 16600 nM | > 100 µM | 11600 nM | 27.7 µM | 15300 nM | 41.1 µM | 7160 nM | 25.4 µM
9 | COc1ccc(N(C)c2nc(Cl)nc3cnn(C)c23)cc1 | < 10 nM | > 100 µM | < 10 nM | > 100 µM | < 10 nM | – | < 11.7 nM | > 100 µM | < 10 nM | > 100 µM | < 38.3 nM | > 95.5 µM | < 10 nM | 0.058 µM | < 20.3 nM | > 100 µM | 17.1 nM | > 100 µM | < 10 nM | > 100 µM
10 | Cc1ccc(S(=O)(=O)N2CCc3ccc(O)c4c3C2Cc2ccc3c(c2-4)OCO3)cc1 (centres undefined) | 894 nM | 20.8 µM | 429 nM | > 42.9 µM | 393 nM | 2.08 µM | 808 nM | 12.4 µM | 451 nM | 10.6 µM | 904 nM | 11.8 µM | 5080 nM | 18.7 µM | 2320 nM | > 40 µM | 1270 nM | 8.63 µM | 583 nM | > 35.1 µM
